Data published in US8975277B2, “2,3-dihydrofuro[2,3-c]pyridin-2-ylpiperidine derivatives” (Boehringer Ingelheim International GmbH, priority 2012, dated 2015).

Target: T1, human GPR119 (Homo sapiens, UniProt Q8TDV5)
T1 construct: expression vector for human GPR119 cDNA (Acc. No. NP_848566); expressed in transfected cells
T1 sequence (Q8TDV5 1-335): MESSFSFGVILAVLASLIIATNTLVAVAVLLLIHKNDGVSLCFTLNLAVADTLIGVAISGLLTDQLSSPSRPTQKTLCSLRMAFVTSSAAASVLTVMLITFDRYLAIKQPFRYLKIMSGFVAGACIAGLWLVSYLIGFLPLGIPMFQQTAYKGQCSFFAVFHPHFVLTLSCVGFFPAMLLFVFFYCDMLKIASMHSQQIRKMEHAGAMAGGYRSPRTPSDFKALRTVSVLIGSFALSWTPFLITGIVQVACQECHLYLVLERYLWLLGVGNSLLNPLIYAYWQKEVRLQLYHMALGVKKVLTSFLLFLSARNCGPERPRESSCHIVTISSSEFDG
Assay: AlphaScreen cAMP assay, activation of GPR119 in MIN6 cells stably transfected with human GPR119
Assay type: cell-based
Settings: Min-6/hGPR119 cells, intracellular cAMP, 45 minutes incubation at room temperature
Method: The compounds of the invention modulate the activity of the G-protein-coupled receptor GPR119. The effect of the compounds on the activation of GPR119 and on the stimulation of intracellular cAMP concentration is determined using the AlphaScreen cAMP Assay Kit (Cat.No.#6760625R) made by Perkin Elmer.
MIN6 cells [Miyazaki J et al., Endocrinology. 1990 July; 127(1):126-32] are stably transfected with an expression vector for human GPR119 cDNA (Acc. No. NP_848566). Min-6/hGPR119 cells are cultured in DMEM, 10% FBS, 50 μM β-mercaptoethanol, 0.3 mg/mL Geniticin, 2 mM GlutaMAX at 37° C., 5% CO2. For the assay, the cells are seeded in Optiplates (white, 384-well, 160W-barcoded, TC, sterile with lid, Cat.No.#6007688 (Perkin Elmer); 10000 cells/well; 50 μL). The plates covered with lids are then incubated for 24 hours at 37° C., 5% CO2. After the medium is aspirated from the wells completely, 10 μl of the test compound are added, the compounds are diluted using stimulating buffer (140 mM NaCl, 3.6 mM KCl, 0.5 mM NaH2PO4, 0.5 mM MgSO4, 1.5 mM CaCl2, 10 mM Hepes, 5 mM NaHCO3; pH 7.4. 0.5 mM IBMX and 0.1% BSA, the final DMSO concentration is 1%). After 45 minutes incubation at room temperature (approx. 20° C.), the cAMP concentrations are determined using the AlphaScreen cAMP Assay Kit (Cat.No.#6760625R from PerkinElmer).

Row | Compound | EC50 [nM]
1 | C[C@H](OC(=O)N1CCC([C@H]2Cc3cc(-c4ccc(S(C)(=O)=O)cc4)ncc3O2)CC1)C(F)(F)F [Example 1, (S)-4-[(R)-5-(4-Methanesulfonyl-phenyl)-2,3-dihydro-furo[2,3-c]pyridin-2-yl]-piperidine-1-carboxylic acid 2,2,2-trifluoro-1-methyl-ethyl ester] | 5
2 | C[C@@H](OC(=O)N1CCC([C@H]2Cc3cc(-c4ccc(S(C)(=O)=O)cc4)ncc3O2)CC1)C(F)(F)F [Example 2, (R)-4-[(R)-5-(4-Methanesulfonyl-phenyl)-2,3-dihydro-furo[2,3-c]pyridin-2-yl]-piperidine-1-carboxylic acid 2,2,2-trifluoro-1-methyl-ethyl ester] | 6
3 | C[C@@H](OC(=O)N1CCC([C@H]2Cc3cc(C4=CCN(S(C)(=O)=O)CC4)ncc3O2)CC1)C(F)(F)F [Example 3, (R)-4-[(R)-5-(1-Methanesulfonyl-1,2,3,6-tetrahydro-pyridin-4-yl)-2,3-dihydro-furo[2,3-c]pyridin-2-yl]-piperidine-1-carboxylic acid 2,2,2-trifluoro-1-methyl-ethyl ester] | 6
4 | C[C@H](OC(=O)N1CCC([C@H]2Cc3cc(C4=CCN(S(C)(=O)=O)CC4)ncc3O2)CC1)C(F)(F)F [Example 4, (S)-4-[(R)-5-(1-Methanesulfonyl-1,2,3,6-tetrahydro-pyridin-4-yl)-2,3-dihydro-furo[2,3-c]pyridin-2-yl]-piperidine-1-carboxylic acid 2,2,2-trifluoro-1-methyl-ethyl ester] | 5
5 | C[C@H](OC(=O)N1CCC([C@]2(C)Cc3cc(C4=CCN(S(C)(=O)=O)CC4)ncc3O2)CC1)C(F)(F)F [Example 5, (S)-4-[(S)-5-(1-Methanesulfonyl-1,2,3,6-tetrahydro-pyridin-4-yl)-2-methyl-2,3-dihydro-furo[2,3-c]pyridin-2-yl]-piperidine-1-carboxylic acid 2,2,2-trifluoro-1-methyl-ethyl ester] | 109
6 | C[C@@H](OC(=O)N1CCC([C@@]2(C)Cc3cc(C4=CCN(S(C)(=O)=O)CC4)ncc3O2)CC1)C(F)(F)F [Example 6, (R)-4-[(R)-5-(1-Methanesulfonyl-1,2,3,6-tetrahydro-pyridin-4-yl)-2-methyl-2,3-dihydro-furo[2,3-c]pyridin-2-yl]-piperidine-1-carboxylic acid 2,2,2-trifluoro-1-methyl-ethyl ester] | 7

These reach a lower EC50. Values come first.

Row | EC50 [nM] | Compound
7 | 3 | C[C@H](OC(=O)N1CCC([C@@]2(C)Cc3cc(C4=CCN(S(C)(=O)=O)CC4)ncc3O2)CC1)C(F)(F)F [Example 7, (S)-4-[(R)-5-(1-Methanesulfonyl-1,2,3,6-tetrahydro-pyridin-4-yl)-2-methyl-2,3-dihydro-furo[2,3-c]pyridin-2-yl]-piperidine-1-carboxylic acid 2,2,2-trifluoro-1-methyl-ethyl ester]
8 | 4 | C[C@@H](OC(=O)N1CCC([C@@]2(C)Cc3cc(-c4ccc(S(C)(=O)=O)cc4)ncc3O2)CC1)C(F)(F)F [Example 8, (R)-4-[(R)-5-(4-Methanesulfonyl-phenyl)-2-methyl-2,3-dihydro-furo[2,3-c]pyridin-2-yl]-piperidine-1-carboxylic acid 2,2,2-trifluoro-1-methyl-ethyl ester]
9 | 1 | C[C@H](OC(=O)N1CCC([C@@]2(C)Cc3cc(-c4ccc(S(C)(=O)=O)cc4)ncc3O2)CC1)C(F)(F)F [Example 9, (S)-4-[(R)-5-(4-Methanesulfonyl-phenyl)-2-methyl-2,3-dihydro-furo[2,3-c]pyridin-2-yl]-piperidine-1-carboxylic acid 2,2,2-trifluoro-1-methyl-ethyl ester]
